Assay results published in article PMC10674160, “Synthesis and Preclinical Evaluation of Radiolabeled [^103Ru]BOLD-100” (Pharmaceutics, 2023).

What was measured:
[1] = Tissue distribution in CT26 allograft bearing Balb/c mice (ICP-MS for 3a, gamma counting for 3b); type: in vivo; details: 30 mg/kg i.v.
Protocol: UV/Vis spectra were recorded on a Hitachi U-2000 Dual Beam spectrophotometer. Sample activities were measured on an ISOMED 2010 dose calibrator. For centrifugation during synthesis, a Fisherbrand^TM Mini-Centrifuge from Fisher Scientific was used. Radioactive organ samples were measured on Perkin Elmer Wizard^2 gamma counter. Non-radioactive organ samples were prepared, and the ruthenium content was quantified with ICP-MS. The exact procedure including instrument information can be found in the Supplementary Materials.
For the evaluation of organ distribution, CT26 cells (5 × 10^5 in serum-free medium) were injected subcutaneously into the right flank of Balb/c mice. Animals were controlled for distress development every day and tumor size was assessed regularly using caliper measurements. CT26 cells were inoculated 10 days prior to drug application. Tumor volume was calculated using the formula: (length × width^2); the tumors reached a size of about 500 mm^3. Animals were treated once intravenously (i.v.) via tail-vein injection with 3a or 3b at a dose of 30 mg/kg (dissolved in 0.9% NaCl, 0.6 mg/100 µL/20 g mouse) and a specific activity of 0.64–1.36 MBq/mg for compound 3b. The mice were anesthetized and sacrificed by cervical fracture 4, 24, 48 and 72 h p.i., with n ≥ 2 (3a) and n ≥ 3 (3b) for each time point. Samples of tumor, liver, kidney, muscle, heart, lung, spleen, pancreas, stomach, colon, small intestine, brain, bone, and blood were collected from each mouse. After clotting at RT, serum was isolated from the collected blood samples by centrifugation at 3000 rpm for 10 min twice and stored together with the collected tissue samples at −20 °C. Finally, the ruthenium content was quantified by ICP-MS in the case of the non-radioactive BOLD-100 (3a) and via gamma counting for [^103Ru]BOLD-100 (3b).
An Agilent 7800 ICP-MS (Agilent Technologies, Tokyo, Japan) was being employed, which was equipped with an Agilent SPS 4 autosampler (Agilent Technologies, Tokyo, Japan) and a MicroMist nebulizer at a sample uptake rate of approx. 0.2 mL/min. The Agilent MassHunter software package (Workstation Software, Version C.01.04, 2018) was used for data evaluation. The instrumental parameters […]
Reference source not found..
Ta ble S1: Instrumental parameters for the ICP-MS measurements […]
Spray chamber Scott double-pass
Spraying chamber temp. 2°C
Nebulizer gas 1.06 L min−1
Auxiliary gas 0.90 L min−1
The instrumental limit of quantification (LOQ) was determined at the start of the measurement by […]
LOQ = blank average + 10*STD
Blank corrections were performed for all the samples. Robustness was ensured by tuning the ICP-MS on a daily basis, by using an internal standard (115In) and measuring calibration standards for each […]
Ultrapure water (18.2 MΩ cm, ELGA Water purification system, Purelab Ultra MK 2, UK or 18.2 MΩ cm, Milli-Q Advantage, Darmstadt, Germany), HNO3 (≥69%, Rotipuran Supra, Carl Roth, Karlsruhe, Germany) and H2O2 (30%, Suprapur, Merck, Darmstadt, Germany) were used for all dilutions for ICP-MS measurements. The Ru standard solution was purchased from Labkings (Hilversum, The Netherlands).
For the digestion, approx. 25–50 mg of each organ sample were weighed into PFA-tubes, with 2 mL HNO3 and 100 µL H2O2 being added. The solutions were then placed on a hot plate and heated up for 6 hours using a temperature program with a maximum temperature of 200 °C. After cooling down, the liquids were transferred directly to 15 mL tubes with the remaining solution being removed from the PFA tubes by washing twice with 4 mL ultrapure water, resulting in a final volume of about 10 mL. By writing down the total weight of the resulting liquid, the dilution factor could be calculated.

[2] = parameters: method as in PMID 28848672; details: phase I clinical study; cited from earlier work

[Cl][Ru-]([Cl])([Cl])[Cl].[Na+].c1ccc2[nH]ncc2c1.c1ccc2[nH]ncc2c1 [3a, sodium trans-[tetrachloridobis(indazole)ruthenate(III)]]
%ID/g tissue Blood cells ([1]; 4 h p.i.): 10.70 ± 4.38 %ID/g tissue
%ID/g tissue Blood cells ([1]; 24 h p.i.): 3.43 ± 0.83 %ID/g tissue
%ID/g tissue Blood cells ([1]; 48 h p.i.): 1.96 ± 1.09 %ID/g tissue
%ID/g tissue Blood cells ([1]; 72 h p.i.): 0.67 ± 0.86 %ID/g tissue
%ID/g tissue Bones ([1]; 4 h p.i.): 1.08 ± 0.25 %ID/g tissue
%ID/g tissue Bones ([1]; 24 h p.i.): 0.79 ± 0.20 %ID/g tissue
%ID/g tissue Bones ([1]; 48 h p.i.): 0.88 ± 0.16 %ID/g tissue
%ID/g tissue Bones ([1]; 72 h p.i.): 1.12 ± 0.35 %ID/g tissue
%ID/g tissue Brain ([1]; 4 h p.i.): 0.36 ± 0.19 %ID/g tissue
%ID/g tissue Brain ([1]; 24 h p.i.): 0.15 ± 0.07 %ID/g tissue
%ID/g tissue Brain ([1]; 48 h p.i.): 0.10 ± 0.02 %ID/g tissue
%ID/g tissue Brain ([1]; 72 h p.i.): 0.11 ± 0.00 %ID/g tissue
%ID/g tissue Colon ([1]; 4 h p.i.): 3.53 ± 1.27 %ID/g tissue
%ID/g tissue Colon ([1]; 24 h p.i.): 2.58 ± 0.13 %ID/g tissue
%ID/g tissue Colon ([1]; 48 h p.i.): 1.68 ± 0.58 %ID/g tissue
%ID/g tissue Colon ([1]; 72 h p.i.): 1.63 ± 0.00 %ID/g tissue
%ID/g tissue Heart ([1]; 4 h p.i.): 5.81 ± 0.94 %ID/g tissue
%ID/g tissue Heart ([1]; 24 h p.i.): 3.66 ± 1.31 %ID/g tissue
%ID/g tissue Heart ([1]; 48 h p.i.): 3.28 ± 0.63 %ID/g tissue
%ID/g tissue Heart ([1]; 72 h p.i.): 2.37 ± 1.97 %ID/g tissue
%ID/g tissue Kidneys ([1]; 4 h p.i.): 11.58 ± 1.35 %ID/g tissue
%ID/g tissue Kidneys ([1]; 24 h p.i.): 10.02 ± 1.09 %ID/g tissue
%ID/g tissue Kidneys ([1]; 48 h p.i.): 7.34 ± 4.13 %ID/g tissue
%ID/g tissue Kidneys ([1]; 72 h p.i.): 6.78 ± 0.18 %ID/g tissue
%ID/g tissue Liver ([1]; 4 h p.i.): 12.90 ± 1.14 %ID/g tissue
%ID/g tissue Liver ([1]; 24 h p.i.): 9.84 ± 0.60 %ID/g tissue
%ID/g tissue Liver ([1]; 48 h p.i.): 8.96 ± 3.11 %ID/g tissue
%ID/g tissue Liver ([1]; 72 h p.i.): 7.90 ± 0.35 %ID/g tissue
%ID/g tissue Lung ([1]; 4 h p.i.): 8.24 ± 2.06 %ID/g tissue
%ID/g tissue Lung ([1]; 24 h p.i.): 4.84 ± 0.53 %ID/g tissue
%ID/g tissue Lung ([1]; 48 h p.i.): 4.64 ± 0.94 %ID/g tissue
%ID/g tissue Lung ([1]; 72 h p.i.): 4.41 ± 1.94 %ID/g tissue
%ID/g tissue Muscle ([1]; 4 h p.i.): 0.82 ± 0.18 %ID/g tissue
%ID/g tissue Muscle ([1]; 24 h p.i.): 0.99 ± 0.28 %ID/g tissue
%ID/g tissue Muscle ([1]; 48 h p.i.): 0.66 ± 0.16 %ID/g tissue
%ID/g tissue Muscle ([1]; 72 h p.i.): 0.84 ± 0.02 %ID/g tissue
%ID/g tissue Pancreas ([1]; 4 h p.i.): 5.14 ± 2.01 %ID/g tissue
%ID/g tissue Pancreas ([1]; 24 h p.i.): 2.81 ± 0.68 %ID/g tissue
%ID/g tissue Pancreas ([1]; 48 h p.i.): 3.18 ± 0.85 %ID/g tissue
%ID/g tissue Pancreas ([1]; 72 h p.i.): 2.19 ± 0.01 %ID/g tissue
%ID/g tissue Serum ([1]; 4 h p.i.): 24.85 ± 0.85 %ID/g tissue
%ID/g tissue Serum ([1]; 24 h p.i.): 9.26 ± 1.03 %ID/g tissue
%ID/g tissue Serum ([1]; 48 h p.i.): 6.29 ± 1.02 %ID/g tissue
%ID/g tissue Serum ([1]; 72 h p.i.): 1.41 ± 1.56 %ID/g tissue
%ID/g tissue Small intestine ([1]; 4 h p.i.): 6.38 ± 3.36 %ID/g tissue
%ID/g tissue Small intestine ([1]; 24 h p.i.): 3.78 ± 0.51 %ID/g tissue
%ID/g tissue Small intestine ([1]; 48 h p.i.): 3.28 ± 2.02 %ID/g tissue
%ID/g tissue Spleen ([1]; 4 h p.i.): 4.23 ± 0.68 %ID/g tissue
%ID/g tissue Spleen ([1]; 24 h p.i.): 4.02 ± 0.71 %ID/g tissue
%ID/g tissue Spleen ([1]; 48 h p.i.): 4.59 ± 1.57 %ID/g tissue
%ID/g tissue Spleen ([1]; 72 h p.i.): 3.92 ± 1.93 %ID/g tissue
%ID/g tissue Stomach ([1]; 4 h p.i.): 2.57 ± 0.29 %ID/g tissue
%ID/g tissue Stomach ([1]; 24 h p.i.): 2.13 ± 0.17 %ID/g tissue
%ID/g tissue Stomach ([1]; 48 h p.i.): 1.76 ± 0.77 %ID/g tissue
%ID/g tissue Stomach ([1]; 72 h p.i.): 1.40 ± 0.01 %ID/g tissue
%ID/g tissue Tumor ([1]; 4 h p.i.): 4.43 ± 1.20 %ID/g tissue
%ID/g tissue Tumor ([1]; 24 h p.i.): 8.34 ± 1.36 %ID/g tissue
%ID/g tissue Tumor ([1]; 48 h p.i.): 7.64 ± 1.78 %ID/g tissue
%ID/g tissue Tumor ([1]; 72 h p.i.): 5.32 ± 1.22 %ID/g tissue
maximum tolerated dose [2]: 625 mg/m^2
